Measured values taken from article PMC7155212 (Journal of Enzyme Inhibition and Medicinal Chemistry, 2020).
Read-outs that look alike come from different tables or passages of the source.

Tests used:
[1] = molecular target: AChE from electric eel (Electrophorus electricus, UniProt O42275); test: biochemical; assay type: biochemical; settings: Ellman method, mean ± SD (n = 3)
Protocol: (§1) The anticholinesterase activity of the 3-arylbenzofuranone compounds was determined by the method of Ellman et al.[16] with slight modifications. […] Acetylthiocholine iodide and butyrylthiocholine iodide were used as substrates respectively. 5,5′-Dithiobis(2-nitrobenzoic acid) (DTNB) was used as the chromophoric reagent. To a 96-well plate, 120 µL of phosphate buffer solution (0.1 M, pH = 8.0, PBS), 20 µL of DTNB (3.3 mM in 0.1 M PBS, pH = 8.0) were added sequentially, 20 µL AChE solution (0.2 U/mL in 0.1 M PBS, pH = 8.0), 20 µL of different concentrations of the sample solution, shaken well, and incubated at 37 °C for 5 min. Then, 20 µL of substrate (5 mM in 0.1 M PBS, pH = 8.0) were added, shaken well, and incubated at 37 °C for 20 min. […] BChE inhibitory activity was assessed similarly using butyrylthiocholine iodide as the substrate. The sample solution was set to five concentration gradients and the experiment was repeated three times. […] Cholinesterase inhibitory effect (%)=[A0−(A1−A2)]/A0×100% where A0 is the absorbance of blank group; A1 is the absorbance of sample group; A2 is the absorbance of sample blank group.

[2] = molecular target: BChE from equine serum (Equus caballus, UniProt P81908); test: biochemical; assay type: biochemical
BChE from equine serum, sequence (P81908 whole entry): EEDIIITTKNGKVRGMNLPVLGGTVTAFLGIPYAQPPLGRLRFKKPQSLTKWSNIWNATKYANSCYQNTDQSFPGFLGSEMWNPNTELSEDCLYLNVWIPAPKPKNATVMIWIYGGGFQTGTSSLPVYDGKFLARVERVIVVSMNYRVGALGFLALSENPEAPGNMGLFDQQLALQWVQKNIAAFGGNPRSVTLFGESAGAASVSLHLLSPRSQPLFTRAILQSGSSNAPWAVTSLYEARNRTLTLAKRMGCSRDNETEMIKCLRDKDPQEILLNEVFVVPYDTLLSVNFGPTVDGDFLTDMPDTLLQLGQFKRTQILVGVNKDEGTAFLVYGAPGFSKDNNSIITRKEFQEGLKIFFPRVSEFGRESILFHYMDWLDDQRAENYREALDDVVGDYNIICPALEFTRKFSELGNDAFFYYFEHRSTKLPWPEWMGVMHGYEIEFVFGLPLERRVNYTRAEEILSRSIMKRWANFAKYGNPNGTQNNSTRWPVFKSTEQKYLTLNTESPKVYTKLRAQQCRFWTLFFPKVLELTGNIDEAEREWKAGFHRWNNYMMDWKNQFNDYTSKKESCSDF
Protocol: as §1

[3] = molecular target: T1, MAO-B (Rattus norvegicus, UniProt P19643); test: In vitro MAO inhibitory activity (Holt method, crude enzyme from rat liver); assay type: biochemical, Wistar rat
T1 construct: The crude enzyme was extracted from the liver of 200–250 g of Wistar rats; from tissue; host or cells: liver of Wistar rats (crude enzyme)
T1 sequence (P19643 1-520): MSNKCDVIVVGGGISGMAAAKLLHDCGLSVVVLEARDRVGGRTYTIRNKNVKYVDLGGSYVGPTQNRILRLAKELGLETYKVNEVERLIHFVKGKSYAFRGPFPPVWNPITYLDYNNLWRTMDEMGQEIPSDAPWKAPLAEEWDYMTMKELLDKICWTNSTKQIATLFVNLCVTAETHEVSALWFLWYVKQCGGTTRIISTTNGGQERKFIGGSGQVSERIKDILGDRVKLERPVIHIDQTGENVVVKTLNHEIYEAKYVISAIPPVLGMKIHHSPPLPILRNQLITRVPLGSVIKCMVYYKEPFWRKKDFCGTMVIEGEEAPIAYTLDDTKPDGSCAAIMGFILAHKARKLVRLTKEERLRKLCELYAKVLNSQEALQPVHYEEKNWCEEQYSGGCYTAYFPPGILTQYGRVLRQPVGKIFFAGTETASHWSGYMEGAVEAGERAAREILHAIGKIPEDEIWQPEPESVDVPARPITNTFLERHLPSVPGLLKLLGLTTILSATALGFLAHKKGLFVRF
Protocol: The MAO inhibitory activity of the 3-arylbenzofuranone compounds was determined by the method of Holt et al.[17] with slight modifications. The crude enzyme was extracted from the liver of 200–250 g of Wistar rats according to literature methods[18]^,[19]. The crude enzyme protein content was determined by the Bradford method using a Bradford Protein Assay Kit (Beyotime). The assay was performed in 0.2 M potassium phosphate buffer pH 7.6 on 96-well plates in 240 μl total volume. The chromogenic solution containing 1 mM vanillic acid, 0.5 mM 4-aminoantipyrine, and 4 U/ml horseradish peroxidase in 0.2 M potassium phosphate buffer pH 7.6 was mixed anew for each measurement. 40 μL of enzyme solution and 40 μL of sample solution were added to a 96-well plate. The solution was then incubated at 37 °C for 20 min. 120 μL of the 4-(trifluoromethyl) benzylamine solution and 40 μL of the chromogenic solution were added subsequently and incubated at 37 °C for 90 min. The absorbance was measured at 490 nm using a microplate reader, and the inhibition rate of MAO and the IC50 value of each sample were calculated according to the formula. The control group replaced the sample solution with PBS (0.2 M, pH = 7.6), the positive control replaced the sample with the positive drug, and the blank group replaced the substrate with PBS, and each group was measured three times in parallel to average. Monoamine oxidase inhibitory effect (%) = [(AC – AB) – (AS – ASB )]/(AC – AB)×100% where AC is the absorbance of control group; AB is the absorbance of blank group; AS is the absorbance of sample group; ASB is the absorbance of sample blank group.

[4] = In vitro antioxidant activity (DPPH radical scavenging); settings: DPPH free radical scavenging, 30 min at 37 °C, mean ± SD (n = 3)
Protocol: The assay provides an assessment of the antioxidant activity due to free radical scavenging by measuring hydrogen atom (or one electron) donating activity. DPPH is a purple stable free radical that is reduced to a yellow-coloured diphenylpicryl hydrazine by an antioxidant. The spectrophotometric assay was carried out as described by the literature method with a slight modification. 100 μL of a sample solution was added to 100 μL of DPPH solution. Following 30 min of incubation at 37 °C and protection from light, the absorbance at 517 nm was determined using a microplate reader. Each group was measured three times in parallel to average. IC50 values were calculated. The percentage of DPPH radical scavenging rate of the target compound is calculated as follows: DPPH free radical scavenging effect (%)=[A0 – (A1−A2)]/A0×100% where A0 is the absorbance of blank group; A1 is the absorbance of sample group; A2 is the absorbance of sample blank group.

[5] = read-out: IC50 value AChE inhibitory activity
[6] = equine serum BChE, Ellman method, mean ± SD (n = 3), read-out: IC50 value BuChE inhibitory activity
[7] = rat liver crude enzyme, 4-(trifluoromethyl)benzylamine substrate, mean ± SD (n = 3), read-out: IC50 value MAO-B inhibitory activity

AChE from electric eel, sequence (O42275 24-633): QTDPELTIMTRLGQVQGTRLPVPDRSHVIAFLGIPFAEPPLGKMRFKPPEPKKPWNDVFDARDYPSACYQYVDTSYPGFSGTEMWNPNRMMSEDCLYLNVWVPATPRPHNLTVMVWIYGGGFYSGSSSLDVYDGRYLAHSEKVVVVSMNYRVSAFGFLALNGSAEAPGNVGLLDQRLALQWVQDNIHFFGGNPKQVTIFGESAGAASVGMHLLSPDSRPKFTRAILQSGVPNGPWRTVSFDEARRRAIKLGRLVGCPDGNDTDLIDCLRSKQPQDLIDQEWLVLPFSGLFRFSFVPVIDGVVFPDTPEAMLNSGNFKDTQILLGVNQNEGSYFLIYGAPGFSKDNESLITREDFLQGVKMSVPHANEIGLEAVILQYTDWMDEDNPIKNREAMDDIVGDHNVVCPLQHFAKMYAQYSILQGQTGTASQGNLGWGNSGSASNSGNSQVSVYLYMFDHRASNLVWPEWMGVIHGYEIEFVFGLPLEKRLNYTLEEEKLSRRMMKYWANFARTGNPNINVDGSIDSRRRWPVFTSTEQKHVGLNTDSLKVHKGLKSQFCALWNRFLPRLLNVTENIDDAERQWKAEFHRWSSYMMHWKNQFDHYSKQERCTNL

| Compound | IC50 [1, 5] | IC50 [2, 6] | IC50 [3, 7] | IC50 [4] | IC50 ([1]; IC50 value AChE inhibitory activity) | IC50 [2] | IC50 [3] |
| --- | --- | --- | --- | --- | --- | --- | --- |
| COc1cc(C2C(=O)Oc3cc(O)ccc32)cc(OC)c1OC (stereo not drawn) [Compound 11, 6-Hydroxy-3–(3′,4′,5′-trimethoxyphenyl)-benzofuranone] | 48.24 ± 0.34 µM | > 200 µM | 38.6 ± 0.42 µM | 11.2 ± 0.24 µM | – | – | – |
| COc1ccc(C2C(=O)Oc3c2ccc(OC)c3O)cc1OC (stereo not drawn) [Compound 12, 6-Methoxy-7-hydroxy-3–(3′,4′-dimethoxyphenyl)-benzofuranone] | 5.25 ± 0.44 µM | 180.9 ± 1.48 µM | 22.9 ± 0.73 µM | 1.6 ± 0.1 µM | – | – | – |
| COc1cc(C2C(=O)Oc3ccc(O)cc32)cc(OC)c1OC (stereo not drawn) [Compound 14, 5-Hydroxy-3–(3′,4′,5′-trimethoxyphenyl)-benzofuranone] | 3.37 ± 0.17 µM | 128 ± 4.65 µM | 69.7 ± 1.26 µM | 5.11 ± 0.13 µM | – | – | – |
| COc1ccc2c(c1)C(c1cc(OC)c(OC)c(OC)c1)C(=O)O2 (stereo not drawn) [Compound 15, 5-Methoxy-3–(3′,4′,5′-trimethoxyphenyl)-benzofuranone] | 2.54 ± 0.19 µM | > 200 µM | 215 ± 2.27 µM | 32.6 ± 0.42 µM | – | – | – |
| COc1ccc2c(c1)OC(=O)C2c1cc(OC)c(OC)c(OC)c1 (stereo not drawn) [Compound 16, 6-Methoxy-3–(3′,4′,5′-trimethoxyphenyl)-benzofuranone] | 4.07 ± 0.19 µM | > 200 µM | > 500 µM | 18 ± 0.48 µM | – | – | – |
| COc1ccc2c(c1)C(c1ccc(OC)c(OC)c1OC)C(=O)O2 (stereo not drawn) [Compound 17, 5-Methoxy-3–(2′,3′,4′-trimethoxyphenyl)-benzofuranone] | 42.3 ± 4.01 µM | > 200 µM | 82.7 ± 1.31 µM | 29.2 ± 0.31 µM | – | – | – |
| COc1ccc2c(c1)OC(=O)C2c1ccc(OC)c(OC)c1OC (stereo not drawn) [Compound 18, 6-Methoxy-3–(2′,3′,4′-trimethoxyphenyl)-benzofuranone] | 124 ± 2.17 µM | > 200 µM | 180.3 ± 1.32 µM | 64.5 ± 1.29 µM | – | – | – |
| COc1ccc(C2C(=O)Oc3cc(OC)c(OC)cc32)cc1OC (stereo not drawn) [Compound 19, 5,6-Dimethoxy-3–(3′,4′-dimethoxyphenyl)-benzofuranone] | – | – | – | 12.6 ± 0.14 µM | 36.5 ± 0.51 µM | > 200 µM | 146 ± 1.83 µM |
| COc1cc(C2C(=O)Oc3c2ccc(O)c3O)cc(OC)c1OC (stereo not drawn) [Compound 20, 6,7-Dihydroxy−3–(3′,4′,5′-trimethoxyphenyl)-benzofuranone] | 0.089 ± 0.01 µM | > 200 µM | 149 ± 3.39 µM | 42.6 ± 2.58 µM | – | – | – |
| COc1cc2c(cc1O)C(c1cc(OC)c(OC)c(OC)c1)C(=O)O2 (stereo not drawn) [Compound 21, 5-Hydroxy-6-methoxy-3–(3′,4′,5′-trimethoxyphenyl)-benzofuranone] | 2.38 ± 0.2 µM | 146 ± 3.05 µM | > 500 µM | 5.35 ± 0.33 µM | – | – | – |
| COc1ccc2c(c1O)OC(=O)C2c1cc(OC)c(OC)c(OC)c1 (stereo not drawn) [Compound 22, 6-Methoxy-7-hydroxy-3–(3′,4′,5′-trimethoxyphenyl)-benzofuranone] | 2.03 ± 0.09 µM | > 200 µM | 30.3 ± 0.65 µM | 6.44 ± 0.12 µM | – | – | – |
| COc1cc2c(cc1O)C(c1cc(OC)c(OC)c(OC)c1)C(=O)O2 (stereo not drawn) [Compound 23, 5-Hydroxy-6-methoxy-3–(3′,4′,5′-trimethoxyphenyl)-benzofuranone] | 26 ± 1.26 µM | > 200 µM | 43.9 ± 1.26 µM | 11.9 ± 0.16 µM | – | – | – |
